According to PMC9317316, “Synthesis and Evaluation of Some New 4H-Pyran Derivatives as Antioxidant, Antibacterial and Anti-HCT-116 Cells of CRC, with Molecular Docking, Antiproliferative, Apoptotic and ADME Investigations” (Pharmaceuticals, 2022):
Several values for one entry are separate records, joined by “and”; a condition that tells them apart may be missing. Equal values may be shown once.

Experiments:
[1] = DPPH radical scavenging assay
Description: The IC50 values for DPPH were calculated from the plot of the scavenging effect against the compound concentration.
The compounds’ capacities to scavenge the stable radical 1,1 diphenyl-2-picrylhydrazyl (DPPH) formed in solution by donation of a hydrogen atom or an electron was investigated according to the method described by Bersuder and coworkers. Due to the fact that the initial blue/purple solution of diphenyl picrylhydrazine changes to yellow in the presence of compounds with a capacity to scavenge DPPH free radicals, this reaction is used as a measure of a compound’s ability to scavenge any free radical. Briefly, a 0.5 mL volume of DPPH ethanolic solution was mixed with an equal volume of each sample concentration (0.03 to 1 mg/mL), shaken strongly and incubated at room temperature for 1 h in darkness. The absorbance of the residual DPPH radicals was measured at 519 nm and compared to that of the control (without the tested compound). DPPH radical scavenging was calculated using the following formula: Scavenging effect (%) = (1 − Acompound/AControl) × 100, where Acompound and Acontrol are the absorbances of the tested compound and of the control, respectively. A plot of the scavenging effect (%) versus the sample concentration was also performed to determine the compound concentration providing 50% inhibition (IC50).

[2] = Reducing power assay (FRAC, Fe3+ to Fe2+); conditions: 0-1 mg/mL, absorbance 700 nm
Description: Secondly, FRAC was determined over the concentration range of 0.0−1 mg/mL via monitoring Fe^3+−Fe^2+ transformation in the presence of the studied compounds and the reference antioxidant BHT to estimate the values of efficient concentration (EC50), expressed in mM.
The reducing power of the studied compounds was assessed according to Oyaizu’s method. Briefly, different concentrations (ranging from 0 to 1 mg/mL) of each tested compound were first mixed with 1 mL of 0.2 M sodium phosphate buffer (pH 6.6) and 1 mL of 1% potassium ferricyanide (K3Fe(CN)6) and incubated at 50 °C for 20 min. After the addition of 1.25 mL of 20% trichloroacetic acid (TCA), the mixture was centrifuged for 10 min at 3000 rpm and the upper layer solution was then mixed with 0.5 mL of 0.1% fresh ferric chloride and an equal volume of deionized water. Finally, the absorption of the resulting mixture was measured at 700 nm using a UV spectrophotometer against distilled water as the blank, while butylated hydroxytoluene (BHT) was used as a positive control. The sample ferric reducing power capability was indicated by increased absorbance.

Structure (SMILES): Cc1cc(C(C)(C)C)c(O)c(C(C)(C)C)c1 [BHT, butylated hydroxytoluene, reference compound]
- IC50 ([1]; 0.03 to 1 mg/mL, 1 h, mean ± SD, triplicate, read-out: IC50 (mM) for DPPH Scavenging Potency): 0.245 ± 0.027 mM
- DPPH Radical Scavenging Effenciency (%) at 1 mg/mL ([1]; at 1 mg/mL): 95.30% and 95.30 ± 0.42%
- EC50 [2]: 89 ± 3 µM
